The record followed here is patent US20130116277A1, “ALDO-KETO REDUCTASE SUBFAMILY 1C3 (AKR1C3) INHIBITORS” (priority 2007, published 2013).

One series addresses T1, ER-alpha (Homo sapiens, UniProt P03372).
T1 construct: expressed in transfected cells; host or cells: HEK-293
T1 sequence (P03372 1-595): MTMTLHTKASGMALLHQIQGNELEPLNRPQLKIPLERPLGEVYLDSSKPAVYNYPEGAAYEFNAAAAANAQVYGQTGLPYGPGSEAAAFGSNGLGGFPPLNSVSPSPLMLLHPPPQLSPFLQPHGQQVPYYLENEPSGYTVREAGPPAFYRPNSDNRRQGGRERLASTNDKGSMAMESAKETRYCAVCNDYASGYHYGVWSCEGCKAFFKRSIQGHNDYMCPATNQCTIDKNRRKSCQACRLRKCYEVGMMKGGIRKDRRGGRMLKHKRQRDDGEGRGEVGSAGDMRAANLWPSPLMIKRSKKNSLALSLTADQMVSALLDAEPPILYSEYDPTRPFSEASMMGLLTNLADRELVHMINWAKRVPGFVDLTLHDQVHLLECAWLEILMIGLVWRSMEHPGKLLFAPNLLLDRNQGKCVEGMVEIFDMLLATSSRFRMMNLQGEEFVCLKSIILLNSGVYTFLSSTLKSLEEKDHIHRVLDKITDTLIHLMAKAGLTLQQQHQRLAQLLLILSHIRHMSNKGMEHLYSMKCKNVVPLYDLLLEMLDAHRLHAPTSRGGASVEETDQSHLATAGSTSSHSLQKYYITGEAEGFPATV
In words: ER-alpha transactivation (ERE-LUC luciferase) in HEK-293 cells.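 For all read-outs here: HEK-293 cells co-transfected with an ER-alpha expression plasmid, an ERE-driven firefly luciferase reporter and a CMV Renilla control, with the firefly signal normalized to Renilla.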 It is filed as cell-based. Conditions: for EC50 / Agonist ER-α, % of E2: agonist mode; for EC50: drug alone, read-out: Agonist ER-α; for IC50: in combination with estradiol, read-out: Antagonist ER-α.

A further series concerns the target T2, ER-beta (Homo sapiens, UniProt Q92731).
T2 construct: expressed in transfected cells; host or cells: HEK-293
Nature of the series: ER-beta transactivation (ERE-LUC luciferase) in HEK-293 cells.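 For all read-outs here: HEK-293 cells transiently transfected with an ER-β expression plasmid and ERE-LUC reporter, firefly luciferase read-out normalized to co-transfected Renilla luciferase.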 It is filed as cell-based. The note with it: for EC50: drug alone, read-out: Agonist ER-β; for IC50 / Antagonist ER-β, % of E2: antagonist mode; for IC50: in combination with estradiol, read-out: Antagonist ER-β.

For series [1], the target named is T3, AKR1C3 (Homo sapiens, UniProt P42330).
T3 sequence (P42330 1-323): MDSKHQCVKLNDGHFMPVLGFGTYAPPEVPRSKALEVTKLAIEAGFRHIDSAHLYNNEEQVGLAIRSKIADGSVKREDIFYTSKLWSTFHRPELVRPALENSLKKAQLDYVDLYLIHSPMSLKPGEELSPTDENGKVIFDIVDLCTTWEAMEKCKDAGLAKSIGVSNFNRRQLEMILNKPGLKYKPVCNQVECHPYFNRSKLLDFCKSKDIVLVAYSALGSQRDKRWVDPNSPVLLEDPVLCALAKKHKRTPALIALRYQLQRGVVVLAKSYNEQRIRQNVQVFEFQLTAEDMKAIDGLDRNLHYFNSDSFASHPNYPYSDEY
In words: Purified AKR1C3 enzyme assay, [14C]-A'dione to testosterone, TLC based. Details: GST (N); made in house; host or cells: bacterial culture, IPTG induced (E. coli BL21-DE3 is named only for the crystallography preparation). It is filed as biochemical. The method, then:
Perkin Elmer; […] American Radiolabeled Chemicals, St. Louis, Mo.). The reaction was stopped by the addition of 400 μl ethyl acetate, vortexed, and spun for […] at 2000 rpm. The upper layer was transferred to a new tube and air dried. The pellet was resuspended in 25 μl of methanol, spotted on TLC plates and fractionated in TLC chamber with 3:1 chloroform:ethyl acetate. Once the mobile phase reached the top, the plates were dried and exposed to a phosphoimager screen overnight. […] Perkin Elmer) was incubated at 37° C. for 60 min. The reaction was stopped by the addition of 400 μl ethyl acetate, vortexed, and spun for […] at 2000 rpm. The upper layer was transferred to a new tube and air dried. The pellet was resuspended in 25 μl of methanol, spotted on TLC plates and fractionated in TLC chamber with 3:1 chloroform:ethyl acetate. Once the mobile phase reached the top, the plates were dried and exposed to a phosphoimager screen overnight.

Series [2] addresses T3, AKR1C3. In words: cell-based.
Method: AKR1C3 expression was checked by Western blot to ensure that the cells over-express AKR1C3. […] Medium was changed to RPMI+1% csFBS without phenol red and maintained in this medium for 3 days to reduce basal hormone levels. […] The data was plotted in SigmaPlot (Systat Software Inc.) and the IC50 values for inhibitors were calculated.
HEK-293 cells stably transfected with AKR1C3 were plated in 24 well plates and were maintained in RPMI+1% csFBS without phenol red for 2 days to reduce the basal steroid levels.
Another series concerns the target ER-β (Homo sapiens, UniProt Q92731). In words: ER-β ligand binding domain competitive binding with [3H]Estradiol.
Series [3] in a line: Liver microsome incubation (HLM Phase I and Phase I + II), LC-MS/MS. It is filed as in vitro ADME, human. Conditions: for microsomal CLint: human, human liver microsomes. The method, then:
Stock solutions of prespective AKR1C3 inhibitors were prepared in DMSO at 5 mM and were incubated with liver microsomes (0.1 mg/mL). Incubations were conducted at 37° C. in a shaking water bath for 10 minutes (microsomes). Incubation durations were selected based on time course study (microsomes) or published literature (recombinant enzymes). Prepared samples were analyzed using LC-MS/MS.
(Liver microsomes are vesicles of endoplasmic reticulum, rich in cytochrome P450 enzymes.)

Setting [4] is: 10 μM inhibitor, purified AKR1C3 TLC based enzyme assay, read-out: AKR1C3 inhibition at 10 μM.
Where [5] appears, read: read-out: % inhibition from control HSD-5 (10 uM).
Where [6] appears, read: HLM Phase I + II, read-out: HLM Phase I + II CLint.

Where “and” joins values, the source holds several entries; their conditions need not be identical. Equal entries are not always repeated. Where two headings read alike, the source gives them in different places. Some results are limits rather than exact numbers.

T2 sequence (Q92731 whole entry, species assumed): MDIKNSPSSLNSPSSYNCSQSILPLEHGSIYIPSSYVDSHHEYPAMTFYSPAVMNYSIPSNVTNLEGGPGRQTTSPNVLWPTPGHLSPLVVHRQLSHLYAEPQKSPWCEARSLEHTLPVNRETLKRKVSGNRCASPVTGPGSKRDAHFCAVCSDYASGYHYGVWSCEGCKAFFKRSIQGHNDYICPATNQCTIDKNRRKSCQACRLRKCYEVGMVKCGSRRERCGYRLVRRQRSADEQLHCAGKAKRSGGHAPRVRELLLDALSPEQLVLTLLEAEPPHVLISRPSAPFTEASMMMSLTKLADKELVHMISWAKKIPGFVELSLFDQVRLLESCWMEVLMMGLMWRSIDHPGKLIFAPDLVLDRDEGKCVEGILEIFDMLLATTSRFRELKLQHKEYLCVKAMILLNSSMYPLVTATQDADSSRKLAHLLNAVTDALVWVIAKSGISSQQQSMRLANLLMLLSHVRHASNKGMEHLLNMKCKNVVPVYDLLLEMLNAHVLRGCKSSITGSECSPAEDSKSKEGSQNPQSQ
ER-β, sequence (Q92731 264-498 limits assumed, species assumed): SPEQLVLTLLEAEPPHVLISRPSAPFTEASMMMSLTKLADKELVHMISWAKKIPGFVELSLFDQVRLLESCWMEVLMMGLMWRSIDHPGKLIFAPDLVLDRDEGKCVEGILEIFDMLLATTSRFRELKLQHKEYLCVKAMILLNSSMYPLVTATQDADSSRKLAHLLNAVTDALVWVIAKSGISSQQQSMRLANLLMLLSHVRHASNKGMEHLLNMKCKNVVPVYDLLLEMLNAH

Usually inhibition stands for the percentage by which the read-out fell short of the control. For `CNS(=O)(=O)c1ccc(-c2cn(-c3ccc(O)cc3)c(=O)c3ccc(O)cc23)cc1` [Compound 36, 4-(6-hydroxy-2-(4-hydroxyphenyl)-1-oxo-1,2-dihydroisoquinolin-4-yl)-N-methylbenzenesulfonamide], the EC50 at ER-alpha and on ER-beta (agonist mode) was greater than 10000 nM throughout. Also, on ER-alpha (antagonist mode), the IC50 is greater than 10000 nM. For the same compound, the inhibition at 10 µM on AKR1C3 [1] (setting [4]) and at AKR1C3 [1] (setting [5]) was 20% each time.

`O=C(O)c1cccc(Nc2ccc(C(F)(F)F)cc2)c1` [DKB-476-065] registered an IC50 against AKR1C3 [2] of 154 nM.

Take `COc1ccc2c(=O)n(-c3ccc(CO)c(OC)c3)cc(-c3ccc(C(F)(F)F)cc3)c2c1` [Compound 25, 2-(4-(hydroxymethyl)-3-methoxyphenyl)-6-methoxy-4-(4-(trifluoromethyl)phenyl)isoquinolin-1(2H)-one]: on AKR1C3 [1] (setting [4]), the inhibition at 10 µM stood at 0%.

As to `COC(=O)c1ccc(-n2ccc3cc(O)ccc3c2=O)cc1CBr` [Compound 104A, methyl 2-(bromomethyl)-4-(6-hydroxy-1-oxoisoquinolin-2(1H)-yl)benzoate], the inhibition at 10 µM on AKR1C3 [1] (setting [5]) is 5%.

Regarding `NC(=O)c1cc(O)cc2c(-c3cc(F)c(F)c(F)c3)cn(-c3ccc(O)cc3)c(=O)c12` [Compound 100A, 6-hydroxy-2-(4-hydroxyphenyl)-1-oxo-4-(3,4,5-trifluorophenyl)-1,2-dihydroisoquinoline-8-carboxamide], the inhibition at 10 µM at AKR1C3 [1] (setting [4]) and at AKR1C3 [1] (setting [5]) was 0% in each case.

On to `N#Cc1cc(O)cc2c(-c3ccc(C(F)(F)F)c(F)c3)cn(-c3ccc(O)cc3)c(=O)c12` [Compound 102, 4-(3-Fluoro-4-(trifluoromethyl)phenyl)-6-hydroxy-2-(4-hydroxyphenyl)-1-oxo-1,2-dihydroisoquinoline-8-carbonitrile], for which the inhibition at 10 µM on AKR1C3 [1] (setting [4]) and on AKR1C3 [1] (setting [5]) was 10% each time.

As a reminder, the Ki is the dissociation constant of the complex between target and ligand, obtained from inhibition or displacement. High values mean weaker binding, low ones tighter binding. The compound `C/C=C/c1cn(-c2ccc(O)cc2)c(=O)c2c(O)cc(O)cc12` [Compound 15i] displayed a Ki at ER-β of 1.66 nM. For the same compound, the EC50 at ER-alpha and on ER-beta (agonist mode) was greater than 10000 nM throughout. Besides, the IC50 at ER-alpha (antagonist mode) was 1970 nM and 1790 nM; at ER-beta, 32.2 nM and 66.3 nM. The inhibition at 10 µM at AKR1C3 [1] (setting [5]) was determined as 10%.

Consider `COc1cc(C=CC(=O)O)cc(OC)c1OC` [3,4,5 trimethoxy cinnamic acid, reference compound], for which the IC50 at AKR1C3 [2] is greater than 10000 nM.

Compound `C[C@@H]1O[C@@H](OC[C@H]2O[C@@H](Oc3c(-c4ccc(O)c(O)c4)oc4cc(O)cc(O)c4c3=O)[C@H](O)[C@@H](O)[C@@H]2O)[C@H](O)[C@H](O)[C@H]1O` [Rutin, reference compound] showed an IC50 on AKR1C3 [2] greater than 10000 nM.

`NC(=O)c1cc(O)cc2c(-c3ccc(C(F)(F)F)c(F)c3)cn(-c3ccc(O)cc3)c(=O)c12` [Compound 102B, 4-(3-fluoro-4-(trifluoromethyl)phenyl)-6-hydroxy-2-(4-hydroxyphenyl)-1-oxo-1,2-dihydroisoquinoline-8-carboxamide]: the inhibition at 10 µM on AKR1C3 [1] (setting [4]) and at AKR1C3 [1] (setting [5]) was 0% throughout.

Consider `O=c1c2ccc(O)cc2c(-c2cc(F)c(F)c(F)c2)cn1-c1ccc(O)cc1` [Compound 79, 6-hydroxy-2-(4-hydroxyphenyl)-4-(3,4,5-trifluorophenyl)isoquinolin-1(2H)-one], for which, on ER-alpha (@1000 nM), the “Agonist ER-α, % of E2” value is on record as 32.6% of E2 @1000 nM. For the same compound, the “Antagonist ER-α, % of E2” value at ER-alpha (antagonist mode, @10k nM) is recorded as 51% of E2 @10k nM. Besides, the “Agonist ER-β, % of E2” value at ER-beta (agonist mode, @1000 nM) is 45.0% of E2 @1000 nM. Also, on ER-beta (@10k nM), the “Antagonist ER-β, % of E2” value is listed as 45.3% of E2 @10k nM. Also, the inhibition at 10 µM at AKR1C3 [1] (setting [4]) and on AKR1C3 [1] (setting [5]) was 44% each time.

As to `COc1ccc(-c2cn(-c3ccc(O)cc3)c(=O)c3c(O)cc(O)cc23)cc1` [Compound 15g, 6,8-dihydroxy-2-(4-hydroxyphenyl)-4-(4-methoxyphenyl)isoquinolin-1(2H)-one], in series [3] (HLM Phase I), the “HLM Phase I CLint” value came out at 35.8 µL/min/mg. Also, the “HLM Phase I T-1/2” value in series [3] (HLM Phase I) was 16.5 min and 19.32 min. Moreover, the “HLM Phase I + II T-1/2” value in series [3] (HLM Phase I + II) was determined as 1.6 min. Further, the microsomal CLint in series [3] (setting [6]) amounted to 422 µL/min/mg; in series [3] (HLM Phase I, read-out: HLM Phase I CLint), 42.1 µL/min/mg. Moreover, the inhibitory constant (Ki) at ER-β was 2.77 nM. Moreover, the EC50 at ER-beta (agonist mode) was greater than 10000 nM. Also, the IC50 was found to be 22.4 nM on ER-beta and 4520 nM at AKR1C3 [2]. The inhibition at 10 µM at AKR1C3 [1] (setting [5]) turned out to be 40%.

In the case of `NC(=O)c1cccc(-n2cc(-c3ccc(C(F)(F)F)c(F)c3)c3cc(O)ccc3c2=O)c1` [Compound 214, 3-(4-(3-fluoro-4-(trifluoromethyl)phenyl)-6-hydroxy-1-oxoisoquinolin-2(1H)-yl)benzamide], the IC50 against AKR1C3 [2] was determined as 241 nM.

For `COC(=N)c1cc(O)cc2c(-c3cc(F)c(F)c(F)c3)cn(-c3ccc(O)cc3)c(=O)c12` [Compound 100, Methyl 6-hydroxy-2-(4-hydroxyphenyl)-1-oxo-4-(3,4,5-trifluorophenyl)-1,2-dihydroisoquinoline-8-carbimidate], the inhibition at 10 µM at AKR1C3 [1] (setting [4]) and on AKR1C3 [1] (setting [5]) was 20% each time.

For the compound `COC(=N)c1cc(O)cc2c(-c3ccc(C(F)(F)F)c(F)c3)cn(-c3ccc(O)cc3)c(=O)c12` [Compound 102A, Methyl 4-(3-fluoro-4-(trifluoromethyl)phenyl)-6-hydroxy-2-(4-hydroxyphenyl)-1-oxo-1,2-dihydroisoquinoline-8-carbimidate], the inhibition at 10 µM at AKR1C3 [1] (setting [4]) and on AKR1C3 [1] (setting [5]) was 0% in each case.

In the case of `N#Cc1cc(O)cc2c(-c3cc(F)c(F)c(F)c3)cn(-c3ccc(O)cc3)c(=O)c12` [Compound 85, 6-hydroxy-2-(4-hydroxyphenyl)-1-oxo-4-(3,4,5-trifluorophenyl)-1,2-dihydroisoquinoline-8-carbonitrile], on ER-alpha (@10k nM), the “Agonist ER-α, % of E2” value is 36.5% of E2 @10k nM. Besides, the IC50 was greater than 10000 nM at ER-alpha (antagonist mode) and 141 nM against AKR1C3 [2]. In addition, the EC50 on ER-beta (agonist mode) was greater than 10000 nM. The “Antagonist ER-β, % of E2” value on ER-beta (@1000 nM) was 59.7% of E2 @1000 nM. Besides, the inhibition at 10 µM at AKR1C3 [1] (setting [4]) and at AKR1C3 [1] (setting [5]) was 86% each time.

On to `O=C(O)c1ccc(-c2cn(-c3ccc(O)cc3)c(=O)c3ccc(O)cc23)cc1` [Compound 43, 4-(6-hydroxy-2-(4-hydroxyphenyl)-1-oxo-1,2-dihydroisoquinolin-4-yl)benzoic acid], for which the EC50 on ER-alpha and at ER-beta (agonist mode) was greater than 10000 nM in each case. Moreover, the IC50 at ER-alpha (antagonist mode) and on ER-beta was greater than 10000 nM throughout. Further, the inhibition at 10 µM at AKR1C3 [1] (setting [4]) and at AKR1C3 [1] (setting [5]) was 42% throughout.

In the case of `CS(=O)(=O)c1ccc(-c2cn(-c3ccc(O)cc3)c(=O)c3ccc(O)cc23)cc1` [Compound 37, 6-hydroxy-2-(4-hydroxyphenyl)-4-(4-(methylsulfonyl)phenyl)isoquinolin-1(2H)-one], the “HLM Phase I T-1/2 (min)” value in series [3] (HLM Phase I) is “stable”. In addition, the “HLM Phase I + II T-1/2” value in series [3] (HLM Phase I + II) turned out to be 3.8 min. Besides, the microsomal CLint in series [3] (setting [6]) worked out at 183 µL/min/mg. In addition, the EC50 at ER-alpha and at ER-beta (agonist mode) was greater than 10000 nM each time. On ER-alpha (antagonist mode), the IC50 was greater than 10000 nM. In addition, the inhibition at 10 µM at AKR1C3 [1] (setting [4]) and at AKR1C3 [1] (setting [5]) was 45% in each case.
